Assay results reported in patent publication US20220125944A1, “ANTIBODY-DRUG CONJUGATE AND USE THEREOF” (priority 2019, published 2022).
Where two headings read alike, the source gives them in different places.

Columns and labels:
[1] = system: Calu-6; experiment: Cytotoxicity of linker-drug complex, Calu-6; type: cell-based; settings: Homo sapiens
Experimental: (§1) The cytotoxicity of the linker-drug complex itself prepared to contain beta-galactosidase was evaluated. Specifically, each of the linker-drug complexes dissolved in DMSO was serially diluted 3× from 200 nM to 30 pM in a medium for cell culture to prepare a sample, and various cancer cell lines were treated with the sample to finally expose the cells to 100 nM to 15 pM the linker-drug complexes. The cells were cultured for 6 days, cell viability was observed using a CCK-8 cell-counting kit and cytotoxicity was evaluated.

[2] = system: Daudi; experiment: Cytotoxicity of linker-drug complex, Daudi; type: cell-based; settings: Homo sapiens
Experimental: as §1

[3] = system: U266; experiment: Cytotoxicity of linker-drug complex, U266; type: cell-based; settings: Homo sapiens
Experimental: as §1

[4] = system: JIMT1; experiment: Cytotoxicity of linker-drug complex, JIMT1; type: cell-based; settings: Homo sapiens
Experimental: as §1

[5] = system: OPM-2; experiment: Cytotoxicity of linker-drug complex, OPM-2; type: cell-based; settings: Homo sapiens
Experimental: as §1

[6] = system: NCI-N87; experiment: Cytotoxicity of linker-drug complex, NCI-N87; type: cell-based; settings: Homo sapiens
Experimental: as §1

[7] = system: Jeko-1; experiment: Cytotoxicity of linker-drug complex, Jeko-1; type: cell-based; settings: Homo sapiens
Experimental: as §1

[8] = system: HCC1954; experiment: Cytotoxicity of linker-drug complex, HCC1954; type: cell-based; settings: Homo sapiens
Experimental: as §1

[9] = system: Raji; experiment: Cytotoxicity of linker-drug complex, Raji; type: cell-based; settings: Homo sapiens
Experimental: as §1

[10] = system: jurkat; experiment: Cytotoxicity of linker-drug complex, jurkat; type: cell-based; settings: Homo sapiens
Experimental: as §1

[11] = system: 697; experiment: Cytotoxicity of linker-drug complex, 697; type: cell-based
Experimental: as §1

[12] = system: Mino; experiment: Cytotoxicity of linker-drug complex, Mino; type: cell-based; settings: Homo sapiens
Experimental: as §1

[13] = system: H929; experiment: Cytotoxicity of linker-drug complex, H929; type: cell-based; settings: Homo sapiens
Experimental: as §1

[14] = molecular target: T1, NaPi2b (UniProt O95436 1-690, limits assumed); experiment: cell-based or functional assay
T1 sequence (looked up): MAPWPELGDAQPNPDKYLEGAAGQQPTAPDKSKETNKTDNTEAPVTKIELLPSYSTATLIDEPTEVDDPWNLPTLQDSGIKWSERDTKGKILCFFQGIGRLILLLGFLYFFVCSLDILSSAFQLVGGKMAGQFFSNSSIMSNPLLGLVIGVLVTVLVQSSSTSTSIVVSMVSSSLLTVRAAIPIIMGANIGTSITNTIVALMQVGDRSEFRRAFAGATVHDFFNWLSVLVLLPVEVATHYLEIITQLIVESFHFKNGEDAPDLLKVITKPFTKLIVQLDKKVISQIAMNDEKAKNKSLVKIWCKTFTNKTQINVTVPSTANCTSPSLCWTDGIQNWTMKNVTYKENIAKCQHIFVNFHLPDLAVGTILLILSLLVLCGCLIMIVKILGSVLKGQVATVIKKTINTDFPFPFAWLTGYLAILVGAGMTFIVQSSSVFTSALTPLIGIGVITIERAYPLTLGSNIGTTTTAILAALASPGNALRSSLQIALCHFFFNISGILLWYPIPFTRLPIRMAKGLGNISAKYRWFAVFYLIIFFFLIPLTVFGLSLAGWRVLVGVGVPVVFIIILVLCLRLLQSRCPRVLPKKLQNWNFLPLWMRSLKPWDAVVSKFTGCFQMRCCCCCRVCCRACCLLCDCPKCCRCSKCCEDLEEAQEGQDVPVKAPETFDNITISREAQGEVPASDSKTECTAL

[15] = molecular target: T1, NaPi2b; experiment: cell-based or functional assay; remark: listed apart in the source
[16] = molecular target: T2, CLL-1 (UniProt Q5QGZ9 1-265, limits assumed); experiment: cell-based or functional assay
T2 sequence (looked up): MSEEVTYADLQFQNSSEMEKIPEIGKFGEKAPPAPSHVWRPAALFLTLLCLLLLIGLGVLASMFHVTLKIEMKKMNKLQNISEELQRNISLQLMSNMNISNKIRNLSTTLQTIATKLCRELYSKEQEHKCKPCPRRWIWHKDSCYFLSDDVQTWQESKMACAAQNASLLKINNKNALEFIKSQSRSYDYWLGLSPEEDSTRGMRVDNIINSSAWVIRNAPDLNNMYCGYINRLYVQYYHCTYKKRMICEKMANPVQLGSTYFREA

For `O=C(CCCCCN1C(=O)C=CC1=O)NCCOc1cc(/C=C/C(=O)N2C[C@@H](CCl)c3c2cc(O[C@@H]2O[C@H](CO)[C@H](O)[C@H](O)[C@H]2O)c2ccccc32)ccc1/C=C/C(=O)N1C[C@@H](CCl)c2c1cc(O[C@@H]1O[C@H](CO)[C@H](O)[C@H](O)[C@H]1O)c1ccccc21` [PD001], the IC50 ([1]; Calu-6, 144 h, read-out: IC50 #1) was 58.9 nM, the IC50 ([1]; Calu-6, read-out: IC50 #2) was 52.2 nM and the IC50 ([1]; Calu-6, read-out: IC50 Mean) was 55.4 nM. It also gave an IC50 ([2]; 144 h, read-out: IC50 #1) of 12.5 nM, an IC50 ([2]; read-out: IC50 #2) of 9.46 nM and an IC50 ([2]; read-out: IC50 Mean) of 10.9 nM. For the same molecule, the IC50 ([3]; U-266, 144 h, read-out: IC50 #1) was 7.97 nM, the IC50 ([3]; U-266, read-out: IC50 #2) was 5.61 nM and the IC50 ([3]; U-266, read-out: IC50 Mean) was 6.69 nM. It also gave an IC50 ([4]; JIMT-1, 144 h, read-out: IC50 #1) of 47 nM, an IC50 ([4]; JIMT-1, read-out: IC50 #2) of 24.9 nM and an IC50 ([4]; JIMT-1, read-out: IC50 Mean) of 34.2 nM. For the same molecule, the IC50 ([5]; OPM-2, 144 h, read-out: IC50 #1) was 26.2 nM, the IC50 ([5]; OPM-2, read-out: IC50 #2) was 25.6 nM and the IC50 ([5]; OPM-2, read-out: IC50 Mean) was 25.9 nM. It also gave an IC50 ([6]; NCI-N87, 144 h, read-out: IC50 #1) of 8.06 nM, an IC50 ([6]; NCI-N87, read-out: IC50 #2) of 9.09 nM and an IC50 ([6]; NCI-N87, read-out: IC50 Mean) of 8.56 nM. For the same molecule, the IC50 ([7]; JeKo-1, 144 h, read-out: IC50 #1) was 13.1 nM, the IC50 ([7]; JeKo-1, read-out: IC50 #2) was 31.7 nM and the IC50 ([7]; JeKo-1, read-out: IC50 Mean) was 20.4 nM. For the same molecule, the IC50 ([8]; HCC1954, 144 h, read-out: IC50 #1) was 25 nM, the IC50 ([8]; HCC1954, read-out: IC50 #2) was 16.4 nM and the IC50 ([8]; HCC1954, read-out: IC50 Mean) was 20.2 nM. It also gave an IC50 ([9]; 144 h, Burkitt's lymphoma, run #1, 6 days, CCK-8, read-out: IC50 #1) of 30.8 nM, an IC50 ([9]; mean of #1 and #2, read-out: IC50 Mean) of 18.4 nM and an IC50 ([9]; run #2, read-out: IC50 #2) of 11 nM. The IC50 ([10]; 144 h, read-out: IC50 #1) was 14.5 nM, the IC50 ([10]; read-out: IC50 #2) was 1.12 nM and the IC50 ([10]; read-out: IC50 Mean) was 12.7 nM. For the same molecule, the IC50 ([11]; 144 h, read-out: IC50 #1) was 4.78 nM, the IC50 ([11]; read-out: IC50 #2) was 3.72 nM and the IC50 ([11]; read-out: IC50 Mean) was 4.22 nM. For the same molecule, the IC50 ([12]; 144 h, read-out: IC50 #1) was 3.26 nM, the IC50 ([12]; 144 h, read-out: IC50 #2) was 2.34 nM and the IC50 ([12]; read-out: IC50 Mean) was 2.76 nM. The IC50 ([13]; NCI-H929, 144 h, read-out: IC50 #1) was 20.3 nM, the IC50 ([13]; NCI-H929, read-out: IC50 #2) was 26.4 nM and the IC50 ([13]; NCI-H929, read-out: IC50 Mean) was 23.1 nM.

B1: D20002 (10H1-PD001) (antibody, human IgG1, kappa, V domains shown)
VH: EVQLVESGGGLVQPGGSLRLSCAASGFSFSDFAMSWVRQAPGKGLEWVATIGRVAFHTYYPDSMKGRFTISRDNSKNTLYLQMNSLRAEDTAVYYCARHRGFDVGHFDFWGQGTLVTVSS
VL: DIQMTQSPSSLSASVGDRVTITCRSSETLVHSSGNTYLEWYQQKPGKAPKLLIYRVSNRFSGVPSRFSGSGSGTDFTLTISSLQPEDFATYYCFQGSFNPLTFGQGTKVEIKR
modifications: linker-drug PD001 conjugated to a cysteine put in place of lysine 149 (Kabat numbering) of the light chain
With B1 the “IC50, cytotoxicity on OVCAR-3” value [14] was 1.53 nM, the “non-binder/binder ratio on OVCAR-3” value [14] was no less than 100 and the “IC50 (nM), cytotoxicity on OVCAR3” value [15] was 1.5 nM.

B2: D20502 (6E7-PD009) (antibody, human IgG1, kappa, V domains shown)
VH: B1 VH
VL: DIQMTQSPSSLSASVGDRVTITCRASQSVSTSSYNYMHWYQQKPGKPPKLLIKYASNLESGVPSRFSGSGSGTDFTLTISSLQPEDFATYYCQHSWEIPLTFGQGTKVEIKR
modifications: linker-drug PD009 conjugated to a cysteine put in place of lysine 149 (Kabat numbering) of the light chain
With B2 the “IC50 (nM), cytotoxicity on EDL-1 (AML)” value [16] was 0.3 nM.
